In patent US20080096967A1, “Formulations for Injection of Catecholic Butanes, Including Ndga Compounds, Into Animals” (priority 2005, published 2008):

Experiment: 40 mg/mL M4N/PEG 300 stability: visual appearance
Assay type: physicochemical
Protocol: The stability of 40 mg/mL M4N dissolved in 100% PEG 300 was evaluated up to 24 hours incubation at 30° C., 45° C. and 60° C. A stock 40 mg/mL M4N in PEG 300 was prepared at 60° C., following the procedure set forth in Example 17. Subsequently, aliquots were removed and incubated at the appropriate temperature. Samples were rotated at 450 rpm during the entire course of incubation. Visual observations and RP-HPLC data were collected throughout. […] The formation of crystals coincided with a loss of soluble M4N (Table 30). The 40 mg/mL M4N/PEG 300 samples incubated at 45° C. and 60° C. were stable after 24 hours incubation as assessed by visual observations and RP-HPLC analysis (Tables 29 and 30).

COc1ccc(C[C@@H](C)[C@@H](C)Cc2ccc(OC)c(OC)c2)cc1OC [Formulation M4N, meso-1,4-bis(3,4-dimethoxyphenyl)-2,3-dimethylbutane]
visual observation (40 mg/mL M4N/PEG 300, 6 hours at 30° C.): tiny crystals were observed
stability by visual observations and RP-HPLC (40 mg/mL M4N/PEG 300, 24 hours at 45° C. and 60° C.): stable
